Earlier results, collected in patent publication US12233067B2, “Topical treatment of vitiligo by a JAK inhibitor” (Incyte Corporation, priority 2019, dated 2025).

How the values were obtained:
[1] = system: patient with both alopecia areata and vitiligo; conditions: oral 20 mg BID for 20 weeks
[2] = system: patient with widespread and progressive vitiligo; conditions: oral 5 mg QD; after 5 months of treatment

Row | Structure (SMILES) | clinical outcome [1] | clinical outcome [2]
1 | N#CC[C@H](C1CCCC1)n1cc(-c2ncnc3[nH]ccc23)cn1 [ruxolitinib, (R)-3-(4-(7H-pyrrolo[2,3-d]pyrimidin-4-yl)-1H-pyrazol-1-yl)-3-cyclopentylpropanenitrile] | hair regrowth as well as repigmentation of areas affected with vitiligo | 
2 | C[C@@H]1CCN(C(=O)CC#N)C[C@@H]1N(C)c1ncnc2[nH]ccc12 [tofacitinib] |  | near complete repigmentation
